Counter-ions that a name gives are not always drawn. Like-named read-outs stand apart in the source and are kept apart here.
How the values were obtained:
[1] = system: aldosterone (DCA)-like activity; conditions: cited from earlier work
[2] = system: Acetic acid-induced ulcer; assay: Acetic acid-induced ulcer; format: in vivo, male SD-strain rats; conditions: for Percent inhibition / Ulcer index (mean ± standard deviation): once a day for 10 days; for significance of inhibition: rat, in vivo
Procedure: In the following test examples, male SD-strain rats (body weight 200 to 250 g) were used as experimental animals, and a sodium salt of the compound of formula (I) dissolved in distilled water was used as the compound of this invention. Acetic acid-induced ulcer: Rats, 5 or 10 per group, were used. After they were anesthetized with pentobarbital sodium, the abdomen was incised, and 0.05 ml of 10% acetic acid was injected into the mucous membrane from the serous layer at the boundary portion in the anterior wall between the body of the stomach and the pylorus part. The abdomen was then sutured. Each of the test drugs shown in Table 2 was intraperitoneally or orally administered once a day for 10 consecutive days beginning with the second day after the above operation. On the 15th day after the operation, the stomach was excised and 12 ml of 1% formalin was injected into it. Then, the stomach was dipped in 1% formalin for 10 minutes, and cut open along the greater curvature. The area of an ulcer generated was measured, and the ulcer index was calculated on the basis of the following standard. |0 0 |1-8 1 | 9-24 2 |25-63 3 | 64-120 4 |121-168 5 |>168 6 The tissue respiration activator used was a calf's blood extract preparation administered at a rate of 0.5 ml per 100 g of body weight (this applies to all tissue respiration activators appearing hereinafter).

Stress ulcer = Stress ulcer (water immersion); format: in vivo, male SD-strain rats
Procedure: (§1) In the following test examples, male SD-strain rats (body weight 200 to 250 g) were used as experimental animals, and a sodium salt of the compound of formula (I) dissolved in distilled water was used as the compound of this invention.
(§2) The tissue respiration activator used was a calf's blood extract preparation administered at a rate of 0.5 ml per 100 g of body weight (this applies to all tissue respiration activators appearing hereinafter).
Rats, 5 per group, were used. They were put in wire gauze stress cages (made by Natsume Seisakusho) in an upstanding position. The cages were put in a water bath kept constantly at 23° C., and the rats were immersed to a level of the sternal projection. Each of the drugs shown in Table 3 was administered to the rats intraperitoneally or orally 15 minutes before water immersion. Seven hours after the administration, the rats were knocked out to death. The stomach was excised, and the length of a stress ulcer (erosion) was measured.

[3] = system: Indomethacin-induced ulcer; assay: Indomethacin-induced ulcer; format: in vivo, male SD-strain rats
Procedure: as §1, §2
Indomethacin-induced ulcer:
Rats, 5 per group, were used. They were caused to fast for 24 hours while giving them only water. Then, indomethacin was subcutaneously injected to the rats in a dose of 30 mg/kg. Eight hours later, the rats were killed, and the stomach was excised and treated in the same way as in Test Example 3. The length of the erosion generated was measured. Each of the test drugs shown in Table 4 was administered to the rats intraperitoneally or orally 10 minutes before the administration of iodomethacin.

[4] = Toxicity (LD50, method of Reed and Muench); conditions: rat, in vivo, rats observed for 7 days
Procedure: The LD50 value was calculated by the method of Reed and Muench.

[5] = system: Shay's ulcer (ulcer induced by ligation of the pylorus); assay: Pylorus ligating method (Shay's ulcer); format: in vivo, male SD-strain rats; design: Ulcer index (mean ± standard deviation): scale not given here; conditions: for minimal effective dose: Rattus norvegicus, read-out: positively effective dose
Procedure: as §1
Pylorus ligating method (Shay's ulcer):
Rats, 10 per group, were used, and allowed to fast for 48 hours in separate cages while giving them only water. Pentobarbital sodium was injected intraperitoneally to the rats in a dose of 5 mg per rat. Under anesthesia, the abdomen of each rat was incised, and the portion leading from the pylorus to the duodenum was ligated. Then, the abdomen was sutered. The rats were then left for 19 hours without giving them food and water. Then, under ether anesthesia, the rats were killed by removing the spinal cord. The stomach was excised, and the amount of the gastric juice was measured. The stomach was then cut open along its greater curvature, and placed on a cork plate. The area of an ulcer generated at the anterior stomach was measured by means of an Olympus stereoscope (magnification 10×), and the ulcer index was calculated on the basis of the following criteria.
The test compound of the invention was injected immediately after the ligation, or orally administered 30 minutes before the ligation. To a control group, physiological saline was given at a rate of 1 ml per 100 g of body weight.

[6] = system: Delayed-type cellular immunity; assay: Delayed-type cellular immunity activating action (sheep red blood cells, foot pad thickness); format: in vivo, mice; conditions: day 8
Procedure: Mice, 10 per group, were used. Sheep red blood cells (1.0×10^7) were subcutaneously inoculated in the right foot pad of each mouse. The day of inoculation was taken as day 0, and on the same day, the sodium salt of the compound of formula (I) was administered to the mice intraperitoneally or orally. On day 7, sheep red blood cells (1.0×10^7) were subcutaneously inoculated in the left foot pad of each mouse, and on day 8, the thickness of each foot pad was measured.

[7] = oral, 50 mg/kg, P < 0.05 (cetraxate), P < 0.0001 (compound of the invention)
[8] = oral, 300 mg/kg, P < 0.01 (cetraxate), P < 0.001 (compound of the invention)
[9] = oral, 300 mg/kg, P < 0.05 (cetraxate), P < 0.001 (compound of the invention)

For CC1(C)[C@@H](O)CC[C@]2(C)[C@H]3CC=C4[C@@H]5C[C@@](C)(C(=O)O)CC[C@]5(C)CC[C@@]4(C)[C@]3(C)CC[C@@H]12 [11-deoxoglycyrrhetinic acid], the DCA activity ([1]; Baran et al., J. Med. Chem. 1974) is listed as “does not substantially show the DCA activity”.
With CC1(C)[C@@H](OC(=O)CCC(=O)O)CC[C@]2(C)[C@H]3C(=O)C=C4[C@@H]5C[C@@](C)(C(=O)O)CC[C@]5(C)CC[C@@]4(C)[C@]3(C)CC[C@@H]12 [Carbenoxolone sodium, glycyrrhetinic acid hydrogen succinate sodium salt, reference compound] the Percent inhibition ([2]; oral, 300 mg/kg) was 12.6%.
For NC[C@H]1CC[C@H](C(=O)Oc2ccc(CCC(=O)O)cc2)CC1 [Cetraxate hydrochloride, cetraxate hydrochloride, reference compound], the Percent inhibition ([2]; intraperitoneal, 20 mg/kg) was 49.5%, the “Ulcer index (mean ± standard deviation)” value ([2]; intraperitoneal, 20 mg/kg) was 1.60 ± 0.245 and the “Ulcer index (mean ± standard deviation)” value ([2]; oral, 50 mg/kg) was 1.90 ± 0.568. The Percent inhibition [2, 7] was 29.6%, the significance of inhibition [2] was “significant inhibitions at P<0.001” and the “Length of the erosion (mean ± standard deviation)” value (Stress ulcer; intraperitoneal, 200 mg/kg) was 56.08 ± 12.89 mm. For the same molecule, the Percent inhibition (Stress ulcer; intraperitoneal, 200 mg/kg) was 13.5%, the Percent inhibition (Stress ulcer; oral, 300 mg/kg) was 36.6% and the “Length of the erosion (mean ± standard deviation)” value (Stress ulcer; [8]) was 48.6 ± 3.90 mm. For the same molecule, the “Length of the erosion (mean ± standard deviation)” value ([3]; intraperitoneal, 200 mg/kg) was 38.94 ± 8.22 mm, the Percent inhibition ([3]; intraperitoneal, 200 mg/kg) was 44.3% and the “Length of the erosion (mean ± standard deviation)” value ([3]; oral, 300 mg/kg) was 31.58 ± 7.59 mm. The Percent inhibition [3, 9] was 43.7%.
With CC1(C)[C@@H](OC(=O)/C=C\C(=O)O)CC[C@]2(C)[C@H]3CC=C4[C@@H]5C[C@@](C)(C(=O)O)CC[C@]5(C)CC[C@@]4(C)[C@]3(C)CC[C@@H]12 [Compound of the invention, sodium salt of 11-deoxoglycyrrhetinic acid hydrogen maleate] the Percent inhibition ([2]; intraperitoneal, 2 mg/kg) was 54.8%, the “Ulcer index (mean ± standard deviation)” value ([2]; intraperitoneal, 2 mg/kg, P < 0.001) was 1.40 ± 0.247 and the “Ulcer index (mean ± standard deviation)” value ([2]; oral, 10 mg/kg) was 1.60 ± 0.699. The Percent inhibition ([2]; oral, 10 mg/kg, P < 0.001) was 40.7%, the “Ulcer index (mean ± standard deviation)” value ([2]; oral, 30 mg/kg) was 1.40 ± 0.699 and the Percent inhibition ([2]; oral, 30 mg/kg, P < 0.001) was 48.1%. The “Ulcer index (mean ± standard deviation)” value ([2]; oral, 50 mg/kg) was 1.00 ± 0.817, the Percent inhibition [2, 7] was 63.0% and the significance of inhibition [2] was “significant inhibitions at P<0.001”. The “rank of percent inhibition” value ([2]; versus cetraxate hydrochloride and tissue respiration activator) was “highest”, the “Length of the erosion (mean ± standard deviation)” value (Stress ulcer; intraperitoneal, 20 mg/kg) was 19.25 ± 0.95 mm and the Percent inhibition (Stress ulcer; intraperitoneal, 20 mg/kg) was 70.3%. The Percent inhibition (Stress ulcer; oral, 100 mg/kg) was 87.5%, the “Length of the erosion (mean ± standard deviation)” value (Stress ulcer; oral, 100 mg/kg, P < 0.001) was 9.6 ± 4.80 mm and the Percent inhibition (Stress ulcer; oral, 300 mg/kg) was 100.0%. The “Length of the erosion (mean ± standard deviation)” value (Stress ulcer; [8]) was 0.0 ± 0.00 mm, the Percent inhibition (Stress ulcer; oral, 500 mg/kg) was 100.0% and the “Length of the erosion (mean ± standard deviation)” value (Stress ulcer; oral, 500 mg/kg, P < 0.001) was 0.0 ± 0.00 mm. The LD50 at 168 h ([4]; ip, intraperitoneal) was 67.8 mg/kg, the LD50 at 168 h ([4]; sc, subcutaneous) was 98.3 mg/kg and the LD50 at 168 h ([4]; intravenous) was 54.2 mg/kg. For the same molecule, the LD50 at 168 h ([4]; oral) was > 6000 mg/kg, the “Length of the erosion (mean ± standard deviation)” value ([3]; intraperitoneal, 20 mg/kg) was 17.69 ± 8.08 mm and the Percent inhibition ([3]; intraperitoneal, 20 mg/kg) was 74.7%. The “Length of the erosion (mean ± standard deviation)” value ([3]; oral, 100 mg/kg) was 9.37 ± 3.22 mm, the Percent inhibition ([3]; oral, 100 mg/kg, P < 0.001) was 83.3% and the “Length of the erosion (mean ± standard deviation)” value ([3]; oral, 300 mg/kg) was 7.22 ± 3.06 mm. The Percent inhibition [3, 9] was 87.1%, the “Length of the erosion (mean ± standard deviation)” value ([3]; oral, 500 mg/kg) was 5.63 ± 3.92 mm and the Percent inhibition ([3]; oral, 500 mg/kg, P < 0.001) was 90.0%. For the same molecule, the minimal effective dose ([5]; ip, intraperitoneal) was ~10 mg/kg, the minimal effective dose ([5]; oral) was ~300 mg/kg and the Percent inhibition ([5]; intraperitoneal, 5 mg/kg) was 17.1%. The “Ulcer index (mean ± standard deviation)” value ([5]; intraperitoneal, 5 mg/kg) was 3.4 ± 0.84, the Percent inhibition ([5]; intraperitoneal, 10 mg/kg) was 65.9% and the “Ulcer index (mean ± standard deviation)” value ([5]; intraperitoneal, 10 mg/kg, P < 0.01) was 1.4 ± 0.51. The Percent inhibition ([5]; intraperitoneal, 20 mg/kg) was 70.7%, the “Ulcer index (mean ± standard deviation)” value ([5]; intraperitoneal, 20 mg/kg, P < 0.01) was 1.2 ± 0.20 and the Percent inhibition ([5]; intraperitoneal, 50 mg/kg) was 92.7%. For the same molecule, the “Ulcer index (mean ± standard deviation)” value ([5]; intraperitoneal, 50 mg/kg, P < 0.001) was 0.3 ± 0.21, the Percent inhibition ([5]; intravenous, 40 mg/kg) was 90.4% and the “Ulcer index (mean ± standard deviation)” value ([5]; intravenous, 40 mg/kg, P < 0.001) was 0.4 ± 0.19. For the same molecule, the Percent inhibition ([5]; oral, 100 mg/kg) was 36.0%, the “Ulcer index (mean ± standard deviation)” value ([5]; oral, 100 mg/kg) was 3.2 ± 0.97 and the Percent inhibition ([5]; oral, 300 mg/kg) was 80.0%. For the same molecule, the “Ulcer index (mean ± standard deviation)” value ([5]; oral, 300 mg/kg, P < 0.01) was 1.0 ± 1.01, the Percent inhibition ([5]; oral, 500 mg/kg) was 84.0% and the “Ulcer index (mean ± standard deviation)” value ([5]; oral, 500 mg/kg, P < 0.001) was 0.8 ± 0.49. For the same molecule, the “effect against ulcer induced by ligation of the pylorus” value ([5]; rat, in vivo) was “effective against ulcer induced by ligation of the pylorus”, the Percent inhibition ([5]; subcutaneous, 70 mg/kg) was 84.6% and the “Ulcer index (mean ± standard deviation)” value ([5]; subcutaneous, 70 mg/kg, P < 0.001) was 0.8 ± 0.90. The “Ratio to the control group” value ([6]; 5 mm/kg (so in the source), intraperitoneal) was 1.18, the “Ratio to the control group” value ([6]; 15 mm/kg (so in the source), intraperitoneal) was 1.49 and the “Ratio to the control group” value ([6]; 100 mm/kg (so in the source), oral) was 1.40.
For CC1(C)[C@@H](O)CC[C@]2(C)[C@H]3C(=O)C=C4[C@@H]5C[C@@](C)(C(=O)O)CC[C@]5(C)CC[C@@]4(C)[C@]3(C)CC[C@@H]12 [glycyrrhetinic acid], the “aldosterone (DCA)-like activity, sodium retention and potassium excretion” value [1] is given as “have an aldosterone (DCA)-like activity and promote sodium retention and potassium excretion”.

From patent US4448788A, “11-Deoxoglycyrrhetinic acid hydrogen maleate, process for its production, and its use as a medicine” (priority 1981, dated 1984)
